{"source": "PubChem BioAssay (NCI)", "assay_in_all_cases": "inhibition of tumour cell growth, NCI panel, 48 h", "key": {"MOLT-4 leukemia": {"system": "MOLT-4 leukemia"}, "SR leukemia": {"system": "SR leukemia"}, "NCI-H226 lung": {"system": "NCI-H226 lung"}, "SF-268 CNS": {"system": "SF-268 CNS"}, "DU-145 prostate": {"system": "DU-145 prostate"}, "SNB-19 CNS": {"system": "SNB-19 CNS"}, "SN12C renal": {"system": "SN12C renal"}, "UO-31 renal": {"system": "UO-31 renal"}, "SF-539 CNS": {"system": "SF-539 CNS"}, "SNB-75 CNS": {"system": "SNB-75 CNS"}}, "note": "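A five-concentration, 48-hour dose response in 96-well plates underlies each endpoint, interpolated linearly between surrounding concentrations. GI50 = concentration required for 50% inhibition of growth. The concentration for full growth arrest is given as TGI.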", "data": [{"smiles": "CCCCCCNCc1cc(C(C)(C)C)cc(CNCCCCCC)c1O", "values": [{"measurement": "GI50", "setting": "MOLT-4 leukemia", "value": 1840, "unit": "nM"}, {"measurement": "TGI", "setting": "MOLT-4 leukemia", "value": 3840, "unit": "nM"}, {"measurement": "GI50", "setting": "SR leukemia", "value": 1730, "unit": "nM"}, {"measurement": "TGI", "setting": "SR leukemia", "value": 3860, "unit": "nM"}, {"measurement": "GI50", "setting": "NCI-H226 lung", "value": 1690, "unit": "nM"}, {"measurement": "TGI", "setting": "NCI-H226 lung", "value": 3360, "unit": "nM"}, {"measurement": "GI50", "setting": "SF-268 CNS", "value": 1700, "unit": "nM"}, {"measurement": "TGI", "setting": "SF-268 CNS", "value": 3320, "unit": "nM"}, {"measurement": "GI50", "setting": "DU-145 prostate", "value": 1800, "unit": "nM"}, {"measurement": "TGI", "setting": "DU-145 prostate", "value": 3210, "unit": "nM"}, {"measurement": "GI50", "setting": "SNB-19 CNS", "value": 1760, "unit": "nM"}, {"measurement": "TGI", "setting": "SNB-19 CNS", "value": 3230, "unit": "nM"}, {"measurement": "GI50", "setting": "SN12C renal", "value": 1700, "unit": "nM"}, {"measurement": "TGI", "setting": "SN12C renal", "value": 3150, "unit": "nM"}, {"measurement": "GI50", "setting": "UO-31 renal", "value": 1370, "unit": "nM"}, {"measurement": "TGI", "setting": "UO-31 renal", "value": 2800, "unit": "nM"}, {"measurement": "GI50", "setting": "SF-539 CNS", "value": 1640, "unit": "nM"}, {"measurement": "TGI", "setting": "SF-539 CNS", "value": 3090, "unit": "nM"}, {"measurement": "GI50", "setting": "SNB-75 CNS", "value": 1440, "unit": "nM"}, {"measurement": "TGI", "setting": "SNB-75 CNS", "value": 2920, "unit": "nM"}]}]}
